{
  "source": "paper PMC8185074",
  "about": "“Anchor extension: a structure-guided approach to design cyclic peptides targeting enzyme active sites” (Nature Communications, 2021)",
  "type_in_all_cases": "biochemical",
  "key": {"HDAC2": {"molecular_target": "T1, HDAC2 (Homo sapiens, UniProt Q92769)", "T1 construct": "purchased Reaction Biology Corporation (assay run by the CRO)", "T1 sequence (Q92769 whole entry)": "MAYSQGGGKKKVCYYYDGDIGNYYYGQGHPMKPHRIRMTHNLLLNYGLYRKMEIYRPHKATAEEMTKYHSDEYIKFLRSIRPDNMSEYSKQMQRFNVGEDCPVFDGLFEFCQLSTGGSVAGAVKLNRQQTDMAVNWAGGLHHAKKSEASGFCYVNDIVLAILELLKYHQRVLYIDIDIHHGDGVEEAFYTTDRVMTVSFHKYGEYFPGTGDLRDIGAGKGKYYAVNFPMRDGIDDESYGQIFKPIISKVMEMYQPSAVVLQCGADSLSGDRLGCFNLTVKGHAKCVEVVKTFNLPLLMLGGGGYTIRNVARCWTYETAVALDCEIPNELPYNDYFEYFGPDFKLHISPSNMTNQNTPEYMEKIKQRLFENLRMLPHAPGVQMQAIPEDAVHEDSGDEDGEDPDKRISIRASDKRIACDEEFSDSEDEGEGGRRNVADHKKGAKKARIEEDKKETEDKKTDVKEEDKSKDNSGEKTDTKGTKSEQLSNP", "experiment": "HDAC2 inhibition, full IC50 measurement (Reaction Biology; fluorogenic p53 peptide RHKK(Ac)AMC)", "method_in_brief": "(§1)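 Inhibitory peptides were acoustically dispensed with enzyme, then substrate added; 1 h at 30 °C. Developer stopped reaction; plateau endpoint fluorescence (360/460 nm) gave IC50.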"}, "HDAC1": {"molecular_target": "T2, HDAC1 (Homo sapiens, UniProt Q13547)", "T2 construct": "purchased Reaction Biology Corporation (assay run by the CRO)", "T2 sequence (Q13547 whole entry)": "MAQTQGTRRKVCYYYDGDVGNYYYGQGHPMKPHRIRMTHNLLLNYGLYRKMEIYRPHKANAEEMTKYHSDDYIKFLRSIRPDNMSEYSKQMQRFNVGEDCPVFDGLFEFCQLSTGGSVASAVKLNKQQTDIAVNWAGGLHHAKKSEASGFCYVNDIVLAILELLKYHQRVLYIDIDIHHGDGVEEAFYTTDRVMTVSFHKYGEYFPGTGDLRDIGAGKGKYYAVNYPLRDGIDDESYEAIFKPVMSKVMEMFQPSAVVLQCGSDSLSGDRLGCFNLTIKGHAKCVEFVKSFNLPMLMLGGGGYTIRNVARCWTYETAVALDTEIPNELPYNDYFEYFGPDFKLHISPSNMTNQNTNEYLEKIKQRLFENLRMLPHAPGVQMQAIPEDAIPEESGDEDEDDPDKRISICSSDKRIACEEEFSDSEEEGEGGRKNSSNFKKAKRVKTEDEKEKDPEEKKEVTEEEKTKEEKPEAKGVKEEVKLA", "experiment": "HDAC1 inhibition, full IC50 measurement (Reaction Biology; fluorogenic p53 peptide RHKK(Ac)AMC)", "details": "t1/t2 replicates", "method_in_brief": "as §1"}, "HDAC8": {"molecular_target": "T3, HDAC8 (Homo sapiens, UniProt Q9BY41)", "T3 construct": "purchased Reaction Biology Corporation (assay run by the CRO)", "T3 sequence (Q9BY41 1-377)": "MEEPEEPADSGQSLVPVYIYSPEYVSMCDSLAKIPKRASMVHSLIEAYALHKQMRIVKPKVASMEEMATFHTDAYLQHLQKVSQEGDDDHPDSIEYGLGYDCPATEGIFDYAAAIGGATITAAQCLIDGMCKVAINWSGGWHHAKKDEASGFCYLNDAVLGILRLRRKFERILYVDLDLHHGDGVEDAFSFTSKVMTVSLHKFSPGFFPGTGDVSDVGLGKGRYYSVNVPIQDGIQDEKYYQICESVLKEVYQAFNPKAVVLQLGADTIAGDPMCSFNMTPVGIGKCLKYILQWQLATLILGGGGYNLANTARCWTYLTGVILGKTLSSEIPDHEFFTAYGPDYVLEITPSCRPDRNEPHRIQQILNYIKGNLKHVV", "experiment": "HDAC8 inhibition, full IC50 measurement (Reaction Biology; fluorogenic p53 peptide RHKK(Ac)AMC)", "details": "t1/t2 replicates", "method_in_brief": "as §1"}},
  "note": "Peptide text beside a SMILES is read from it.",
  "data": [
    {"smiles": "N=C(N)NCCC[C@@H]1NC(=O)[C@@H](CCCNC(=N)N)NC(=O)[C@H]2CCCN2C(=O)[C@@H](Cc2c[nH]cn2)NC(=O)[C@H](Cc2ccc(O)cc2)NC(=O)[C@H](CCCCCS)NC(=O)[C@H](CCc2ccccc2)NC(=O)[C@@H](CO)NC(=O)[C@H](CC(=O)O)NC1=O", "note": "[des3.3.1, SHA-Tyr-dHis-dPro-dArg-Arg-Asp-dSer-C27] (HELM PEPTIDE1{[O=C([C@H](CCCCCS)N[*:1])[*:2]].Y.[dH].[dP].[dR].R.D.[dS].[O=C([C@H](CCc1ccccc1)N[*:1])[*:2]]}$PEPTIDE1,PEPTIDE1,1:R1-9:R2$$$V2.0)", "values": [
      {"measurement": "HDAC2 activity raw data (signal)", "setting": "HDAC2; Conc. 1.00E-06 M, t1", "result": 33408},
      {"measurement": "HDAC2 activity raw data (signal)", "setting": "HDAC2; Conc. 1.00E-06 M, t2", "result": 20115},
      {"measurement": "HDAC2 activity raw data (signal)", "setting": "HDAC2; Conc. 1.11E-07 M, t1", "result": 236730},
      {"measurement": "HDAC2 activity raw data (signal)", "setting": "HDAC2; Conc. 1.11E-07 M, t2", "result": 242180},
      {"measurement": "HDAC2 activity raw data (signal)", "setting": "HDAC2; Conc. 1.23E-08 M, t1", "result": 774356},
      {"measurement": "HDAC2 activity raw data (signal)", "setting": "HDAC2; Conc. 1.23E-08 M, t2", "result": 764329},
      {"measurement": "HDAC2 activity raw data (signal)", "setting": "HDAC2; Conc. 1.37E-09 M, t1", "result": 1033572},
      {"measurement": "HDAC2 activity raw data (signal)", "setting": "HDAC2; Conc. 1.37E-09 M, t2", "result": 1142758},
      {"measurement": "HDAC2 activity raw data (signal)", "setting": "HDAC2; Conc. 1.52E-10 M, t1", "result": 1093848},
      {"measurement": "HDAC2 activity raw data (signal)", "setting": "HDAC2; Conc. 1.52E-10 M, t2", "result": 1228270},
      {"measurement": "HDAC2 activity raw data (signal)", "setting": "HDAC2; Conc. 3.33E-07 M, t1", "result": 99662},
      {"measurement": "HDAC2 activity raw data (signal)", "setting": "HDAC2; Conc. 3.33E-07 M, t2", "result": 91701},
      {"measurement": "HDAC2 activity raw data (signal)", "setting": "HDAC2; Conc. 3.70E-08 M, t1", "result": 494195},
      {"measurement": "HDAC2 activity raw data (signal)", "setting": "HDAC2; Conc. 3.70E-08 M, t2", "result": 473509},
      {"measurement": "HDAC2 activity raw data (signal)", "setting": "HDAC2; Conc. 4.12E-09 M, t1", "result": 948142},
      {"measurement": "HDAC2 activity raw data (signal)", "setting": "HDAC2; Conc. 4.12E-09 M, t2", "result": 1005576},
      {"measurement": "HDAC2 activity raw data (signal)", "setting": "HDAC2; Conc. 4.57E-10 M, t1", "result": 1113632},
      {"measurement": "HDAC2 activity raw data (signal)", "setting": "HDAC2; Conc. 4.57E-10 M, t2", "result": 1221209},
      {"measurement": "HDAC2 activity raw data (signal)", "setting": "HDAC2; Conc. 5.08E-11 M, t1", "result": 1186904},
      {"measurement": "HDAC2 activity raw data (signal)", "setting": "HDAC2; Conc. 5.08E-11 M, t2", "result": 1232500},
      {"measurement": "HDAC1 activity raw data (signal)", "setting": "HDAC1; peptide conc. 1.00E-06 M, listed as des3.3.1_t1", "result": 15410},
      {"measurement": "HDAC1 activity raw data (signal)", "setting": "HDAC1; peptide conc. 1.00E-06 M, listed as des3.3.1_t2", "result": 7555},
      {"measurement": "HDAC1 activity raw data (signal)", "setting": "HDAC1; peptide conc. 1.11E-07 M, listed as des3.3.1_t1", "result": 112128},
      {"measurement": "HDAC1 activity raw data (signal)", "setting": "HDAC1; peptide conc. 1.11E-07 M, listed as des3.3.1_t2", "result": 105674},
      {"measurement": "HDAC1 activity raw data (signal)", "setting": "HDAC1; peptide conc. 1.23E-08 M, listed as des3.3.1_t1", "result": 518542},
      {"measurement": "HDAC1 activity raw data (signal)", "setting": "HDAC1; peptide conc. 1.23E-08 M, listed as des3.3.1_t2", "result": 461507},
      {"measurement": "HDAC1 activity raw data (signal)", "setting": "HDAC1; peptide conc. 1.37E-09 M, listed as des3.3.1_t1", "result": 889775},
      {"measurement": "HDAC1 activity raw data (signal)", "setting": "HDAC1; peptide conc. 1.37E-09 M, listed as des3.3.1_t2", "result": 866345},
      {"measurement": "HDAC1 activity raw data (signal)", "setting": "HDAC1; peptide conc. 1.52E-10 M, listed as des3.3.1_t1", "result": 1024825},
      {"measurement": "HDAC1 activity raw data (signal)", "setting": "HDAC1; peptide conc. 1.52E-10 M, listed as des3.3.1_t2", "result": 1088311},
      {"measurement": "HDAC1 activity raw data (signal)", "setting": "HDAC1; peptide conc. 3.33E-07 M, listed as des3.3.1_t1", "result": 46006},
      {"measurement": "HDAC1 activity raw data (signal)", "setting": "HDAC1; peptide conc. 3.33E-07 M, listed as des3.3.1_t2", "result": 42579},
      {"measurement": "HDAC1 activity raw data (signal)", "setting": "HDAC1; peptide conc. 3.70E-08 M, listed as des3.3.1_t1", "result": 265387},
      {"measurement": "HDAC1 activity raw data (signal)", "setting": "HDAC1; peptide conc. 3.70E-08 M, listed as des3.3.1_t2", "result": 253770},
      {"measurement": "HDAC1 activity raw data (signal)", "setting": "HDAC1; peptide conc. 4.12E-09 M, listed as des3.3.1_t1", "result": 789498},
      {"measurement": "HDAC1 activity raw data (signal)", "setting": "HDAC1; peptide conc. 4.12E-09 M, listed as des3.3.1_t2", "result": 714925},
      {"measurement": "HDAC1 activity raw data (signal)", "setting": "HDAC1; peptide conc. 4.57E-10 M, listed as des3.3.1_t1", "result": 1015951},
      {"measurement": "HDAC1 activity raw data (signal)", "setting": "HDAC1; peptide conc. 4.57E-10 M, listed as des3.3.1_t2", "result": 1019110},
      {"measurement": "HDAC1 activity raw data (signal)", "setting": "HDAC1; peptide conc. 5.08E-11 M, listed as des3.3.1_t1", "result": 1072870},
      {"measurement": "HDAC1 activity raw data (signal)", "setting": "HDAC1; peptide conc. 5.08E-11 M, listed as des3.3.1_t2", "result": 1116290},
      {"measurement": "HDAC8 activity raw data (signal)", "setting": "HDAC8; peptide conc. 1.00E-05 M, listed as des3.3.1_t1", "result": 1764805},
      {"measurement": "HDAC8 activity raw data (signal)", "setting": "HDAC8; peptide conc. 1.00E-05 M, listed as des3.3.1_t2", "result": 2650341},
      {"measurement": "HDAC8 activity raw data (signal)", "setting": "HDAC8; peptide conc. 1.11E-06 M, listed as des3.3.1_t1", "result": 12709203},
      {"measurement": "HDAC8 activity raw data (signal)", "setting": "HDAC8; peptide conc. 1.11E-06 M, listed as des3.3.1_t2", "result": 10450749},
      {"measurement": "HDAC8 activity raw data (signal)", "setting": "HDAC8; peptide conc. 1.23E-07 M, listed as des3.3.1_t1", "result": 26946160},
      {"measurement": "HDAC8 activity raw data (signal)", "setting": "HDAC8; peptide conc. 1.23E-07 M, listed as des3.3.1_t2", "result": 26450742},
      {"measurement": "HDAC8 activity raw data (signal)", "setting": "HDAC8; peptide conc. 1.37E-08 M, listed as des3.3.1_t1", "result": 39769433},
      {"measurement": "HDAC8 activity raw data (signal)", "setting": "HDAC8; peptide conc. 1.37E-08 M, listed as des3.3.1_t2", "result": 37609928},
      {"measurement": "HDAC8 activity raw data (signal)", "setting": "HDAC8; peptide conc. 1.52E-09 M, listed as des3.3.1_t1", "result": 46887256},
      {"measurement": "HDAC8 activity raw data (signal)", "setting": "HDAC8; peptide conc. 1.52E-09 M, listed as des3.3.1_t2", "result": 44277806},
      {"measurement": "HDAC8 activity raw data (signal)", "setting": "HDAC8; peptide conc. 3.33E-06 M, listed as des3.3.1_t1", "result": 5825269},
      {"measurement": "HDAC8 activity raw data (signal)", "setting": "HDAC8; peptide conc. 3.33E-06 M, listed as des3.3.1_t2", "result": 6935130},
      {"measurement": "HDAC8 activity raw data (signal)", "setting": "HDAC8; peptide conc. 3.70E-07 M, listed as des3.3.1_t1", "result": 21428540},
      {"measurement": "HDAC8 activity raw data (signal)", "setting": "HDAC8; peptide conc. 3.70E-07 M, listed as des3.3.1_t2", "result": 18809141},
      {"measurement": "HDAC8 activity raw data (signal)", "setting": "HDAC8; peptide conc. 4.12E-08 M, listed as des3.3.1_t1", "result": 34070523},
      {"measurement": "HDAC8 activity raw data (signal)", "setting": "HDAC8; peptide conc. 4.12E-08 M, listed as des3.3.1_t2", "result": 34526681},
      {"measurement": "HDAC8 activity raw data (signal)", "setting": "HDAC8; peptide conc. 4.57E-09 M, listed as des3.3.1_t1", "result": 42350569},
      {"measurement": "HDAC8 activity raw data (signal)", "setting": "HDAC8; peptide conc. 4.57E-09 M, listed as des3.3.1_t2", "result": 43646566},
      {"measurement": "HDAC8 activity raw data (signal)", "setting": "HDAC8; peptide conc. 5.08E-10 M, listed as des3.3.1_t1", "result": 45458566},
      {"measurement": "HDAC8 activity raw data (signal)", "setting": "HDAC8; peptide conc. 5.08E-10 M, listed as des3.3.1_t2", "result": 46659013}
    ]}
  ]
}
